Experimental data reported in patent US20120251628A1, “COMPOSITIONS AND METHODS FOR TREATMENT OF CANCER” (priority 2011, published 2012).

How the values were obtained:
[1] = tested on: CT26 colon carcinoma cells; assay: Anti-tumor effect in mice bearing subcutaneous CT26 tumors, alone or with irinotecan; format: in vivo
Method: Female BALBc mice bearing subcutaneous CT26 colon carcinoma cells were injected intraperitoneally with sodium meta arsenite (10/mg/kg body weight) or irinotecan alone, or co-administered weekly for four weeks.

β-tubulin = assay: Western blot of total tubulin protein from HUVECs; format: cell-based, Human; conditions: 5, 10, 20 and 50 uM, 24 and 48 hours, higher concentration
Method: (§1) To analyze the change in the overall expression of tubulin, the total amount of tubulin protein was kept to identify by western blotting. HUVECs were cultured in F25 culture flasks containing F-12K (Sigma) medium supplemented with 10% FBS and endothelial cell growth supplement (ECGS, E2759, Sigma). After cultivation for 24 hours, the cells were treated with sodium meta arsenite at concentrations of 5 uM, 10 uM, 20 uM and 50 uM. At 24 hours and 48 hours after treatment, the cells were collected and washed with phosphate buffered saline (PBS) solution. The washed cells were reacted with THF solution (50 mM Tris-Hcl, pH 7.5, 100 mM NaCl, 2 mM EDTA, 1% NP-40, protease inhibitor) at 4° C. for 15 minutes and then broken down or destroyed by use of an ultrasonic cell crusher before SDS (0.5%) was added. Protein from the samples was assayed by using a BCA protein kit (Thermo, 23227) before the same amount of protein (3 μg) was mixed with protein sample buffer. […] warmed up in a water bath in boiling water at 100° C. for five minutes. SDS-PAGE was conducted using a 10% polyacrylamide gel. At the end of electrophoresis, the gel was transferred to nitrocellulose membrane in semi-dry method at room temperature at 220 mA for 40 minutes. […]

α-tubulin = assay: Western blot of total tubulin protein from HUVECs; format: cell-based, Human; conditions: 5, 10, 20 and 50 uM, 24 and 48 hours, higher concentration
Method: as §1

O=[As][O-].[Na+] [sodium meta arsenite]
tumor growth delay ([1]; sodium meta arsenite administered 24 hours or 72 hours after irinotecan, weekly for four weeks): Significant tumor growth delay
tumor regrowth ([1]; sodium meta arsenite alone, 10 mg/kg intraperitoneal): regrowth was observed from the periphery after two days
necrosis of the tumor ([1]; sodium meta arsenite alone, 10 mg/kg intraperitoneal, by 24 hours after treatment): Massive necrosis in the central part of the tumor
protein level of β-tubulin (β-tubulin): reduced the protein level
protein level of α-tubulin (α-tubulin): reduced the protein level
